Test results as given in publication PMC5150241, “Antimicrobial mechanism of theaflavins: They target 1-deoxy-D-xylulose 5-phosphate reductoisomerase, the key enzyme of the MEP terpenoid biosynthetic pathway” (Scientific Reports, 2016).
Read-outs that look alike come from different tables or passages of the source.

How the values were obtained:
E. coli DXR [1] = target: T1, E. coli DXR (Escherichia coli, UniProt P45568); experiment: DXR inhibition assay, pre-column derivatization HPLC method; format: biochemical; conditions: for Inhibition (%) Triton, lower concentration / Inhibition (%) Triton, higher concentration: 0.01% Triton X-100; for Inhibition (%) Triton, lower concentration / Inhibition (%) No Triton, lower concentration: conc: TF 150, TF3G 30, TF3′G 20, TF3,3′G 15, baicalein 50 μM; for Inhibition (%) Triton, higher concentration / Inhibition (%) No Triton, higher concentration: conc: TF 250, TF3G 50, TF3′G 40, TF3,3′G 30, baicalein 100 μM; for IC50: 2 mM VC, 0.5 mM NADPH, 1 mM DXP, 37 °C, 30 min, read-out: IC50 against DXR; for Inhibition (%) No Triton, lower concentration / Inhibition (%) No Triton, higher concentration: no Triton X-100
T1 construct: made in house
T1 sequence (P45568 whole entry): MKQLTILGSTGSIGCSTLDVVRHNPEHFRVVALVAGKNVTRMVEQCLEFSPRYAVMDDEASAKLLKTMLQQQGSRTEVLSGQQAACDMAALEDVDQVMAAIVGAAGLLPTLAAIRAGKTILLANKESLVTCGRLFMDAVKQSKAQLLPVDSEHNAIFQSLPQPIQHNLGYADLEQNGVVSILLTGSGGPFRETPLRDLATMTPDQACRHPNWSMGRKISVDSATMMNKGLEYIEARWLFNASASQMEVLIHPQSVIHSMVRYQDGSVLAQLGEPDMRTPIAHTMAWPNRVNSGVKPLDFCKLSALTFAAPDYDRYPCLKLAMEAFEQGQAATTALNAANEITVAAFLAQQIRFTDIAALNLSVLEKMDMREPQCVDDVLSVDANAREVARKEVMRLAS
Method: Then, we evaluated the DXR inhibitory activity of all four theaflavins at a final concentration of approximately 150 μM, employing 2% DMSO as a co-solvent and VC as a protective agent. […] Encouraged by these experiments, we further determined the DXR inhibitory effects of the theaflavins at different concentrations.
We therefore determined the DXR inhibitory activity of the theaflavins using 0.01% Triton X-100 as a surfactant to verify whether the theaflavins were aggregating inhibitors of DXR. Exactly the same procedure as described in the experimental part was followed to carry out the measurements. […] Then, we set two distinct concentrations for each of the theaflavins to evaluate its inhibition against DXR, one was close to its IC50 value and the other was about twice of it.
The inhibitory activity of the theaflavins and baicalein against E. coli DXR was determined using the pre-column derivatization HPLC method published by this group with minor modifications[29]. The assay mixture consists of 50 mM Tris-HCl (pH 7.4), 5 mM MgCl2, 2 mM VC, 0.5 mM NADPH, 2% (W/V) DMSO or 0.01% Triton X-100, and 4 μg/mL DXR in a final volume of 100 μL. The theaflavin compounds or baicalein were added to the mixtures separately before the addition of DXP (final conc. 1 mM) to start the reaction. […] The reaction mixture was incubated at 37 °C for 30 min before the DXR was inactivated by boiling for 3 minutes. Subsequently, 10 μL AP buffer (1 M Tris-HCl, 1 M NaCl2 50 mM MgCl2, pH 9.5) and 2 U AP were added, and the mixture was incubated at 37 °C for 120 min. 10 μL DNPH (120 mM in 30% perchloric acid, V/V) and 280 μL methanol were supplemented. After incubated at 37 °C for another 45 min, the mixture was centrifuged at 6000 rpm for 3 min and the supernatant was used for HPLC analysis on the Agilent 1200 HPLC system. HPLC conditions: Column, Shim-pack VP-ODS column (250 × 4.6 mm, 4.6 μm). Injection volume: 60 μL. Gradient: 0 min, 40% acetonitrile; 17 min, 80% acetonitrile; 18–20 min, 40% acetonitrile. Detection wavelength: 360 nm. Flow rate: 0.7 mL/min. Column temperature: 30 °C.

[2] = Particle size analysis by dynamic light scattering (DLS); format: physicochemical; conditions: 50 mM Tris-HCl pH 7.4, 2 mM VC, 2% DMSO; for DLS Count Rate, with 4 μg/mL DXR / DLS Count Rate, without DXR: conc: TF 500, TF3G 100, TF3′G 100, TF3,3′G 70, baicalein 200 μM
Method: DLS is a widely utilized technique in materials science to measure particle sizes in solutions[20][21]. […] Baicalein was referenced as a positive control owing to the same reason as mentioned above. The particle size evaluation was performed by a DLS analyzer and the results display that except for baicalein, the theaflavins produce no detectable particles.
The particle size of the theaflavin compounds and baicalein in Tris-HCl buffer (50 mM, pH 7.4) containing 2 mM VC and 2.0% DMSO (V/V) was measured in the absence and presence of DXR (final concentration: 4 μg/mL) on a DLS analyzer (NICOMP-380, Particle Sizing Systems, Inc., Santa Barbara, Calif., USA). The detector time was set to 10 min. […] A solution of 2.0% aqueous DMSO was used as a reference.

[3] = design: method as in earlier work; conditions: cited from earlier work
Plasmodium falciparum = conditions: malaria caused by Plasmodium falciparum; cited from earlier work
[4] = Stability of the theaflavins under the DXR assay conditions (HPLC); format: physicochemical; conditions: 100 μM before incubation, 50 mM Tris-HCl pH 7.4, 37 °C, 35 min; for Concentration after incubation in the absence of 2 mM VC: no VC
Method: The theaflavins are unstable compounds, especially under a basic condition. Because the DXR inhibition assay needs to be carried out in 50 mM Tris-HCl buffer at pH 7.4 and incubated at 37 °C for 30 min, we have to test whether the theaflavins can survive the assay condition, although it is almost neutral. The compounds were actually incubated at 37 °C for 35 min, 5 min longer than that of the real DXR assay. The results, as depicted in Table 1, indicate that almost half of the theaflavins decomposed after incubation. That is to say that these compounds are unstable even under the weak basic condition. […] Thus VC (2 mM) was used to protect the theaflavins in the following assays.
Stability of the theaflavins in Tris-HCl buffer was evaluated using an Agilent 1200 HPLC equipped with a DAD detector. The theaflavins were separately diluted into 50 mM Tris-HCl buffer (pH 7.4) containing 5 mM MgCl2 and 2% (W/V) DMSO to a final concentration of 100 μM in the absence and presence of 2 mM VC. The mixtures were subsequently incubated at 37 °C for 35 min before they were centrifuged at 6000 rpm for 3 min and analyzed. HPLC conditions: Column, Shim-pack VP-ODS column (250 × 4.6 mm, 4.6 μm). Detection wavelength: 280 nm. Injection volume: 20 μL. The mobile phase consists of 60% solvent A [2% acetic acid in water (v/v)] and 40% solvent B (acetonitrile). Flow rate: 0.7 mL/min. Column temperature: 25 °C. […]
1. Stability of the theaflavins under the DXR assay conditions
In order to evaluate the stability of the theaflavins under the DXR assay conditions, each compound was diluted into 50 mM Tris-HCl buffer (pH 7.4) and incubated at 37 °C for 35 min in the absence and presence of 2 mM VC before they were determined by HPLC. The HPLC profiles were listed in Fig. S1. From the figure we are able to see that in the presence of 2 mM VC, the four theaflavin compounds are stable because the peak area of each compound remains almost unchanged after incubation (B). But they are unstable in the absence of VC because the peak areas of all four […]
(1 picture or pasted object on this page, not shown here)
Figure S1. The stabilitiy of the theaflavin compounds under DXR assay conditions. A. Mixtures of VC and individual theaflavins in 50 mM Tris-HCl buffer (pH 7.4) before incubation; B. Mixtures of VC and individual theaflavins in same buffer after incubated at 37 °C for 35 min; C. Individual theaflavins in same buffer after incubated at 37 °C for 35 min. In A and B. Line 1, TF (100 μM) plus VC (2 mM); Line 2, TF3G (100μM) plus VC (2 mM); Line 3, TF3’G (100μM) plus VC (2 mM); Line 4, TF3,3’G (100μM) plus VC (2 mM). In C. Line 1, TF (100 μM); Line 2, TF3G (100μM); Line 3, TF3’G (100μM); Line 4, TF3,3’G (100μM). HPLC conditions:
Column, Shim-pack VP-ODS column (250 × 4.6 mm, 4.6μm). Detection wavelength: 280 nm. The mobile phase consisted of 60% solvent A [2% acetic acid in water (v/v)] and 40% solvent B (acetonitrile). Flow rate:
0.7 mL/min. Column temperature: 25 °C. […]

E. coli DXR [5] = target: T1, E. coli DXR; experiment: Inhibition kinetics against DXR (Lineweaver-Burk plots); format: biochemical; conditions: for Ki: 2 μg/mL DXR; for Kinetics (DXP): inhibition mode with respect to DXP; for Kinetics (NADPH): inhibition mode with respect to NADPH
Method: Lineweaver-Burk (LB) graphical charts were obtained by plotting the reciprocal of the reaction velocity against the reciprocal of the concentration of DXP/NADPH.
For A, the mixtures contained 1 mM DXP and NADPH (final conc. 0.05 to 0.275 mM); For B, the mixtures contained 0.5 mM NADPH and DXP (final conc. 0.075 to 0.3375 mM). The incubation was performed for 10 min at 37 °C before the reaction mixtures were hydrolyzed with AP, derivatized with DNPH, and analyzed using the HPLC method.
Lineweaver–Burk plots of DXR with respect to NADPH in the absence and presence of TF (A-1),
Assay mixtures comprised 50 mM tris-HCl (pH 7.4), 5 mM
MgCl2, 2 mM VC, the theaflavins (TF: 0, 2, 10, 20 μM; the other three compounds: 0, 1, 4, or 8 μM), 1 mM DXP and 2 μg/mL DXR in a final volume of 100 μL. Then, NADPH (final conc. 0.05 to 0.275 mM) was added, and incubation was performed for 10 min at 37 °C before the reaction mixtures were hydrolyzed with AP, derivatized with DNPH, and analyzed using the HPLC method. (A-1) DXR inhibition kinetics of TF; (A-2) DXR inhibition kinetics of TF3G; (A-3) DXR inhibition kinetics of TF3’G; (A-4) DXR inhibition kinetics of
Lineweaver–Burk plots of DXR with respect to DXP in the absence and presence of TF (B-1),
MgCl2, 2 mM VC, the theaflavins (TF: 0, 5, 10, 20 μM; the other three compounds: 0, 1, 4, or 8 μM), 0.5 mM NADPH, and 2 μg/mL. DXR in a final volume of 100 μL. Then, DXP (final conc. 0.075 to 0.3375 mM) was added, and incubation proceeded for 10 min at 37 °C before the reaction mixtures were hydrolyzed with AP, derivatized with DNPH, and analyzed using the HPLC method. (B-1) DXR inhibition kinetics of TF; (B-2) DXR inhibition kinetics of TF3G; (B-3) DXR inhibition kinetics of TF3’G; (B-4) DXR inhibition kinetics of

Calf intestine AP = target: T2, Calf intestine AP (Bos taurus, UniProt P19111); experiment: Alkaline phosphatase (AP) inhibition assay, HPLC method; format: biochemical; conditions: 2 mM
T2 construct: purchased Takara (Dalian, China)
T2 sequence (P19111 20-533): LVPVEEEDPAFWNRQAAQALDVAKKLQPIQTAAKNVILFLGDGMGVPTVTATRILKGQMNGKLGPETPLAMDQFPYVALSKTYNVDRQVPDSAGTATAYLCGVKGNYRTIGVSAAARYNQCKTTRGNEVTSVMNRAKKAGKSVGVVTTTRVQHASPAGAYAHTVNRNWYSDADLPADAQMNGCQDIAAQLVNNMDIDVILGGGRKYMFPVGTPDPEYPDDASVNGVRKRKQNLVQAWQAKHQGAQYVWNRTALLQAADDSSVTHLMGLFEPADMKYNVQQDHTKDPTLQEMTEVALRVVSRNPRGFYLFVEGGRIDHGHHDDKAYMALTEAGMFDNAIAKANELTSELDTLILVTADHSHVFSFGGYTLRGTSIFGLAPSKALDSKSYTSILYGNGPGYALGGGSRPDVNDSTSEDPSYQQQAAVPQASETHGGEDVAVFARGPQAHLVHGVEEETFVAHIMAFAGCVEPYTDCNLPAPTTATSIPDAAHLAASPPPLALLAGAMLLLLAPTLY
Method: The other factor that could influence the determination of inhibitory activity of the theaflavins against DXR would be the AP because we must use it to dephosphorylate DXP before DNPH derivatization. We thus measured whether VC and the theaflavins might display any inhibition against this enzyme. We find that VC has no effect on the activity of AP at 2 mM and the four theaflavins also have no inhibition against AP at all (Fig. 4), even at final concentrations as high as 500 μM.
Figure 4 Determination of inhibition of VC and the theaflavins against AP. The reaction mixtures comprise 10 μL AP buffer and 2 U AP in a final volume of 100 μL, DXP was added (final conc. 1 mM) to start the reaction. The reaction mixtures were incubated at 37 °C for 120 min and subsequently derivatized with DNPH and analyzed with the HPLC method. For VC assay, 2 mM VC was added before the addition of DXP. For assays of the theaflavins, the compounds were added separately before the addition of DXP (two concentrations, 20 and 500 μM for each compound were applied).
The HPLC method described above was also used to determine the inhibitory activity of the theaflavins against AP. The reaction mixture comprises 2 mM VC, 10 μL AP buffer and 2 U AP in a final volume of 100 μL. […] Then, the reaction mixture was derivatized with DNPH and analyzed with the HPLC method.

[6] = DXP as varied substrate, 0.5 mM NADPH, read-out: Ki (DXP)
[7] = NADPH as varied substrate, 1 mM DXP, read-out: Ki (NADPH)

Molecule | DLS Count Rate, with 4 μg/mL DXR ([2]; 4 μg/mL DXR) [KHz] | DLS Count Rate, without DXR [2] [KHz] | Concentration after incubation in the presence of 2 mM VC [4] [µM] | Concentration after incubation in the absence of 2 mM VC [4] [µM] | Inhibition (%) Triton, lower concentration (E. coli DXR [1]) [%] | Inhibition (%) Triton, higher concentration (E. coli DXR [1]) [%] | IC50 (E. coli DXR [1]; 2% DMSO) [µM] | Inhibition (%) No Triton, lower concentration (E. coli DXR [1]) [%] | Inhibition (%) No Triton, higher concentration (E. coli DXR [1]) [%] | Ki (E. coli DXR [5]; [6]) [µM] | Ki (E. coli DXR [5]; [7]) [µM] | Kinetics (DXP) (E. coli DXR [5]) | Kinetics (NADPH) (E. coli DXR [5]) | further results
O=c1cc(-c2ccccc2)oc2cc(O)c(O)c(O)c12 [Baicalein, baicalein, reference compound] | 296 ± 19.7 | 2.6 ± 0.5 | – | – | – | – | – | – | – | – | – | – | – | inhibition at 100 µM (E. coli DXR [1]; read-out: Inhibition (%) No Triton, higher concentration): 63.5 ± 2.9%; inhibition at 50 µM (E. coli DXR [1]; read-out: Inhibition (%) No Triton, lower concentration): 37.6 ± 4.7%; inhibition at 100 µM (E. coli DXR [1]; read-out: Inhibition (%) Triton, higher concentration): 6.5 ± 4.6%; inhibition at 50 µM (E. coli DXR [1]; read-out: Inhibition (%) Triton, lower concentration): 5.1 ± 3.9%; DLS Size, with 4 μg/mL DXR ([2]; 4 μg/mL DXR, baicalein 200 μM): 429.2 ± 84.7 nm
O=CN(O)CCCP(=O)(O)O [Fosmidomycin, fosmidomycin] | – | – | – | – | – | – | – | – | – | – | – | – | – | Bioavailability [3]: poor; Plasma half-life [3]: ~ 1 h; Inhibition of DXR activity (positive control) (E. coli DXR [1]; 1.0 μM): complete inhibition; Efficacy in treating malaria (clinical data) (Plasmodium falciparum): somewhat effective
O=C(O[C@@H]1Cc2c(O)cc(O)cc2O[C@@H]1c1cc(O)c(=O)c2c(O)c(O)cc([C@H]3Oc4cc(O)cc(O)c4C[C@H]3OC(=O)c3cc(O)c(O)c(O)c3)c2c1)c1cc(O)c(O)c(O)c1 [TF3,3′G, theaflavin-3,3′-digallate] | 4.8 ± 0.4 | 2.2 ± 0.4 | 96.72 ± 2.78 | 55.26 ± 4.32 | – | – | – | – | – | – | – | – | – | –
O=C(O[C@@H]1Cc2c(O)cc(O)cc2O[C@@H]1c1cc(O)c(O)c2c(=O)c(O)cc([C@H]3Oc4cc(O)cc(O)c4C[C@H]3O)cc12)c1cc(O)c(O)c(O)c1 [TF3G] | 4.6 ± 0.5 | 2.6 ± 0.5 | 98.15 ± 2.86 | 60.88 ± 2.77 | 52.7 ± 2.4 | 67.9 ± 3.4 | 29.2 ± 2.6 | 52.6 ± 3.2 | 69.6 ± 2.7 | 30.2 ± 2.6 | 24.7 ± 3.2 | Noncompetitive | Uncompetitive | –
O=C(O[C@@H]1Cc2c(O)cc(O)cc2O[C@@H]1c1cc(O)c(=O)c2c(O)c(O)cc([C@H]3Oc4cc(O)cc(O)c4C[C@H]3O)c2c1)c1cc(O)c(O)c(O)c1 [TF3′G, theaflavin-3′-gallate] | 5.2 ± 0.4 | 1.4 ± 0.5 | 98.08 ± 3.02 | 61.17 ± 4.29 | 42.5 ± 3.3 | 70.7 ± 3.3 | 23.7 ± 2.9 | 41.3 ± 2.9 | 70.3 ± 3.4 | 22.2 ± 3.1 | 22.4 ± 2.1 | Noncompetitive | Uncompetitive | –
O=c1c(O)cc([C@H]2Oc3cc(O)cc(O)c3C[C@H]2O)cc2c([C@H]3Oc4cc(O)cc(O)c4C[C@H]3O)cc(O)c(O)c12 [TF, theaflavin] | 5.8 ± 0.4 | 2.2 ± 0.4 | 98.97 ± 3.27 | 63.01 ± 3.73 | 43.9 ± 3.6 | 62.2 ± 2.9 | 162 ± 3.6 | 45.3 ± 3.4 | 63.1 ± 2.4 | 107 ± 3.9 | 83.1 ± 4.3 | Noncompetitive | Uncompetitive | Inhibition against DXR at a single concentration (E. coli DXR [1]; approximately 150 μM, 2% DMSO, VC): approximately 40%
O=C1O[C@H]([C@@H](O)CO)C(O)=C1O [VC, ascorbic acid] | – | – | – | – | – | – | – | – | – | – | – | – | – | Effect on the activity of DXR (E. coli DXR [1]; 2 mM): no effect; Effect on the activity of AP (Calf intestine AP): no effect
Triton X-100 | – | – | – | – | – | – | – | – | – | – | – | – | – | Effect on the activity of DXR (E. coli DXR [1]; 0.1%): no effect
